This is an account of results in PubChem BioAssay (NCI).

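Values below derive from 48-hour exposures of cells grown in 96-well plates, with endpoints linearly interpolated between the two concentrations bracketing the appropriate inhibition level. At the TGI there is no net growth.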

Holding throughout (test): inhibition of tumour cell growth, NCI panel, 48 h
Experiment [1] has as its system DLD-1 colon.
Experiment [2] has as its system RXF-631 renal.
Experiment [3] relates to M19-MEL melanoma.
The subject of experiment [4] is HOP-18 NSCLC.
For experiment [5], the system named is DMS 273 small cell lung.
The subject of experiment [6] is KM20L2 colon.
The test system of experiment [7] is DMS 114 small cell lung.
Experiment [8] has as its system XF 498 CNS.
In experiment [9] the test system is SNB-78 CNS.

For the compound `CCCCCCCCCCCCCCCCCC(=O)NCCCNCCCNC(=O)CCCCCCCCCCCCCCCCC`, the TGI in experiment [1], in [2], in [3], in experiment [4], in [5] and in experiment [6] was > 100 µM in each case. Besides, the TGI in experiment [7] is > 100 µM.
Consider `Cc1ccc2c(c1)NC(=O)C(N=[N+]=[N-])(c1ccccc1)C2=O` (stereo unspecified), for which the TGI in experiment [8] is 60.2 µM; in experiment [1], > 100 µM; in [9], 64.3 µM; in [3], 40 µM; in experiment [4], 88.3 µM; in [5] it was 28.6 µM. The TGI in [6] came out at 74.6 µM; in experiment [7], 81.1 µM.
Take `COc1ccc(OC)c(CCc2cc(OC)c(OC)cc2C)c1`: the TGI was > 100 µM in experiment [8]; > 100 µM in [1]; 92.7 µM in experiment [9]; > 100 µM in [3]; > 100 µM in [6]; 72.9 µM in experiment [7].
Regarding `CCCCCN(CCCCC)C(=O)[C@@H](CCC(=O)OCc1ccccc1)NC(=O)c1cc2ccccc2[nH]1`, the TGI in [1], in experiment [9], in [2], in experiment [4], in experiment [5] and in [6] was > 100 µM each time. For the same compound, the TGI in [7] is > 100 µM.
With `O=C(Nc1cc(C(F)(F)F)ccc1Cl)C(=O)C(C(=O)c1ccc2ccccc2c1)C1OC(=O)c2ccccc21` (stereo unspecified), the TGI in experiment [1] amounted to 36.3 µM; in [3], 46.4 µM; in experiment [6] it was 39.1 µM; in experiment [7] it was 52.9 µM.
On to `CCOc1ccc(N=Cc2cc(OC)c(OC)c(OC)c2)cc1`, for which the TGI in experiment [8], in experiment [1], in experiment [9], in [3], in [4] and in experiment [5] was > 100 µM each time. Moreover, the TGI in [6] and in experiment [7] was > 100 µM each time.
Consider `C[n+]1c2ccccc2c(NC(CCC(N)=O)C(=O)O)c2ccccc21` (stereo unspecified), for which the TGI in experiment [8], in experiment [1], in experiment [9], in experiment [2], in experiment [3] and in experiment [4] was > 100 µM in each case. In addition, the TGI in experiment [5], in [6] and in [7] was > 100 µM each time.
With `CN(C)CC1(C)CC/C(=C\c2ccc3c(c2)OCO3)C1=O` (stereo unspecified), the TGI in [8], in experiment [1], in experiment [9], in [3], in experiment [4] and in experiment [5] was > 100 µM in each case. Besides, the TGI in experiment [6] and in [7] was > 100 µM throughout.
On to `CCC(C)(C)NC1=C(NC(C)=O)C(=O)c2ccccc2C1=O`, for which the TGI was 40.2 µM in experiment [8]; > 75 µM in [1]; > 75 µM in experiment [9]; 23.7 µM in experiment [3]; > 75 µM in experiment [5]; > 75 µM in experiment [6].
Regarding `Cc1c2n(c3ccccc13)CC1C2N(C)OC1(C)C` (stereo unspecified), the TGI in [8], in [1], in [9], in [3], in experiment [5] and in [6] was > 100 µM throughout. In addition, the TGI in experiment [7] was > 100 µM.
Turning to `CCC(=S)N(C)O`, the TGI in experiment [8] was 29.8 µM; in [1], > 100 µM; in [9], > 100 µM; in [3], > 51.7 µM; in experiment [6] it was > 100 µM; in [7], 5.82 µM.
For the compound `CC1=CCC2(C#N)CCC1C2=O` (stereo unspecified), the TGI in experiment [8], in experiment [1], in experiment [9], in experiment [2], in [3] and in experiment [6] was > 100 µM each time. For the same compound, the TGI in experiment [7] was > 100 µM.
Regarding `CC(C)NC(C)Cc1ccccc1` (stereo unspecified), the TGI in experiment [1], in experiment [9], in experiment [2], in [3], in experiment [4] and in experiment [5] was > 100 µM in each case. The TGI in [6] and in [7] was > 100 µM in each case.
Turning to `C(/COc1cccnc1)=N\NC1=NCCN1`, the TGI in [8], in experiment [1], in experiment [9], in experiment [3], in experiment [4] and in [5] was > 100 µM in each case. For the same compound, the TGI in experiment [6] and in experiment [7] was > 100 µM in each case.
With `Cc1oc2c(c1C(=O)c1ccccc1)C(=O)c1ccccc1C2=O`, the TGI in [8] was 5.18 µM; in [1] it was 10 µM; in experiment [9], > 100 µM; in experiment [2] it was > 100 µM; in experiment [3], 4.93 µM; in [4], 30.4 µM. In addition, the TGI in [5] came to 26.7 µM; in experiment [6] it was 31.9 µM; in [7], 8.03 µM.
As for `CN/N=C(\C)CC(=O)Nc1cccc(Cl)c1C`, the TGI in experiment [8], in experiment [1], in experiment [9], in experiment [2], in experiment [3] and in [4] was > 100 µM throughout. For the same compound, the TGI in [5], in experiment [6] and in experiment [7] was > 100 µM throughout.
Turning to `COC(=O)C(C(=O)C(=O)Nc1ccccc1OC)c1csc(-n2nc(-c3ccccc3)cc2-c2ccccc2)n1` (stereo unspecified), the TGI in experiment [8], in experiment [1], in experiment [9], in experiment [2], in experiment [3] and in experiment [4] was > 100 µM each time. Further, the TGI in [5], in experiment [6] and in experiment [7] was > 100 µM in each case.
For the compound `CC(C)(C)C1CCC2c3c([nH]c4ccccc34)C3C(=O)N(c4ccc(Br)cc4)C(=O)C3C2C1` (stereo unspecified), the TGI in experiment [8] is 76.2 µM; in [1], > 100 µM; in [9], > 100 µM; in experiment [3], 33.2 µM; in experiment [4], > 100 µM; in experiment [5], 31.9 µM. Besides, the figures for the TGI in [6] and in experiment [7] were 42.2 µM and 41.6 µM, respectively.
For the compound `CCN(CC)CC(C)(C)C(=O)/C=C/c1ccc(C)cc1`, the TGI in [8] is 20.4 µM; in experiment [1], 32.4 µM; in experiment [9], 26.3 µM; in [2], 55.7 µM; in [3] it was 79.6 µM; in experiment [4] it was 23.6 µM. The same compound registered a TGI in experiment [6] of 13.3 µM.
For `CCC12C=CCN3CC[C@]4(C(=C(C(=O)OC)[C@@H]1Nc1ccn(C5OC(COC(C)=O)C(OC(C)=O)C5OC(C)=O)c(=O)n1)Nc1ccccc14)C32` (stereo partly specified), the TGI in experiment [8] amounted to 9.63 µM; in experiment [1], 9.14 µM; in experiment [9] it was 13.8 µM; in experiment [3], 7.45 µM; in experiment [4], 14.1 µM; in experiment [5], 8.54 µM. Moreover, in experiment [6], the TGI amounted to 8.19 µM.
`C/C=C/C=C/[C@H]1Cc2cc(O)cc(O)c2O1`: the TGI in experiment [8], in experiment [1], in [9], in [2], in experiment [3] and in experiment [4] was > 100 µM each time. Moreover, the TGI in experiment [5], in [6] and in [7] was > 100 µM throughout.
`Cc1ccc(S(=O)(=O)C2=c3ncccc3=C3C(=O)c4ccccc4C(=O)C32)cc1` (stereo unspecified): the TGI in experiment [1], in experiment [9], in experiment [3], in experiment [4], in [5] and in experiment [7] was > 100 µM throughout.
For the compound `C=C1CC2(OC1=O)c1ccccc1CCc1ccccc12`, the TGI in [8] was found to be 3.88 µM; in experiment [1], 3.4 µM; in [9] it was 4.43 µM; in experiment [3] it was 3.36 µM; in experiment [4], 4.61 µM; in experiment [5], 11.3 µM. The values for the TGI in [6] and in experiment [7] were 14.5 µM and 3.42 µM, respectively.
Take `CC1=NN(C(=O)c2ccc(Cl)cc2)C(=O)/C1=C/c1cccc(O)c1`: the TGI in [1], in experiment [9], in experiment [3], in experiment [6] and in experiment [7] was > 100 µM in each case.
